Bridge positions count the residues as written; N and C are the ends. Square brackets hold non-standard residues; d marks the D form. Side chains are listed from the residue outwards. Peptide text beside a SMILES is read from it. * marks the point of attachment. X1 = C[C@@H]1OC(OCCCC(=O)NCCNC(=O)COc2cc(OCC(=O)NCCNC(=O)CCCOC3O[C@@H](C)C(O)C(O)[C@@H]3O)cc(-c3cc(OCC(=O)NCCNC(=O)CCCOC4O[C@@H](C)C(O)C(O)[C@@H]4O)cc(C(=O)*)c3)c2)[C@@H](O)C(O)C1O; X3 = C[C@@H]1OC(OCCCC(=O)NCCNC(=O)COc2ccc(-c3cccc(C(=O)*)c3)cc2)[C@@H](O)C(O)C1O; Gly(octyl) = CCCCCCCC[C@H](N)C(=O)O; Nonanoyl = CCCCCCCCC(=O)*; X2 = CC[C@H](C)CCCCC(=O)*; Dab = NCC[C@H](N)C(=O)O; Ahx = NCCCCCC(=O)O
How the values were obtained:
[1] = tested on: Pseudomonas Aeruginosa PA01 (ATCC 15692); assay: Flow cytometric antibody recruitment assay using an anti-Rhamnose antibody; assay type: cell-based; conditions: 40 μM substance; MFI (PE) over vehicle control; human anti-Rhamnose IgG polyclonal antibody 42 μg/mL; binding to bacterial surface
Experimental: Flow Cytometric Antibody Recruitment Assay Using an Anti-Rhamnose Antibody
A secondary fluorescently labelled anti-IgG antibody was used to detect the anti-Rhamnose antibody binding.
The assays were carried out in polystyrene 96-well U bottom plates (Costar) blocked with 200 μl of Casein blocking buffer for 1 hour at room temperature (Fisher 37528). Pseudomonas Aeruginosa PA01 (ATCC 15692) was grown in LB broth, Miller (Fisher BP1426-500) to late exponential phase. Subsequently, the bacteria were washed once with Hank's Balanced Salt Solution with calcium and magnesium (HBSS+/+) and then resuspended in HBSS+/+ at a bacterial density of 2×10^9 colony forming units (CFU)/mL. […] The bacteria were then washed three times with 200 μL HBSS+/+, prior to adding 50 μL of the human anti Rhamnose IgG polyclonal antibody at a final concentration of 42 μg/mL in HBSS+/+. The samples were incubated for 1 hour at room temperature shaking at 450 rpm. The bacteria were washed three times as above, prior to adding 100 μL of a PE-labeled anti-human IgG Fc secondary antibody (Biolegend 409304) at 10 μg/mL in HBSS+/+ and incubating at room temperature for 1 hour at 450 rpm. After three final washes with 200 μL HBSS+/+, the bacteria were resuspended in 200 μL HBSS+/+ and evaluated for anti-Rhamnose antibody binding on a Cytoflex flow cytometer (Beckman Coulter). 50,000 counts of bacterial particles were sampled and the median fluorescent shift was recorded in the PE-A channel. Data from all samples were analysed using Kaluza software (Beckman Coulter).
The fold shift over background was calculated by dividing the Median Fluorescent Intensity (MFI) obtained in the presence of 40 μM of the Example compounds by the MFI value obtained in the vehicle controls, i.e., the absence of Examples. The higher the fold shift over background, the more anti-Rhamnose was bound to the bacterial surface. The shift in fluorescence intensity (PE) occurs due to the binding event at each end of the molecule.

[2] = tested on: E. coli K1:O18ac:H7 (ATCC 700973); assay: Flow cytometric complement deposition assay with human serum; assay type: cell-based; conditions: MFI (APC) over vehicle, 25% pooled human serum, 37° C., 20 min; for C3b deposition (5 μM, Average fold change): 5 μM compound, C3b/iC3b on bacterial surface
Experimental: Flow Cytometric Complement Deposition Assay with Human Serum
The assays were carried out in polystyrene 96-well U bottom plates (Costar). E. coli K1:O18ac:H7 (American Type Culture Collection, ATCC 700973) was grown in LB broth, Miller (Fisher BP1426-500) to late exponential phase. Subsequently, the bacteria were washed in Hank's Balanced Salt Solution with calcium and magnesium (HBSS+/+) and then resuspended in assay buffer, i.e., PBS with 1% bovine serum albumin (BSA, Sigma A2153) at a concentration of 2×10^9 CFU/mL. […] Subsequently, 150 μL ice-cold HBSS+/+ was added, the bacteria were pelleted and then washed once with 200 μL HBSS+/+, prior to adding 100 μL of pooled human serum (Innovate Research IPLA-CSER) as anti-Rhamnose antibody and complement source in PBS, 1% BSA to a final serum concentration of 25%. Bacteria were incubated at 37° C. for 20 min to allow for anti-Rhamnose binding to the compounds and complement deposition. 100 μL ice-cold HBSS+/+ was added to each well to stop the reaction. The bacteria were pelleted by centrifugation at 4° C. and the supernatants discarded. The bacteria were then washed two times with 200 μL refrigerated HBSS+/+, prior to adding 100 μL of APC-labelled anti-human C3b/iC3b antibody (Biolegend 846106; clone 3E7/C3b) at 1:25 dilution in PBS, 1% BSA and incubated at 4° C. for 45 min. After three final washes with 200 μL HBSS+/+, the bacteria were resuspended in HBSS+/+ and their fluorescence profile as an indicator for complement deposition evaluated on a Cytoflex flow cytometer (Beckman Coulter). The median fluorescent intensity (MFI) was recorded in the APC channels. Data from all samples were analysed using Kaluza software (Beckman Coulter).
The fold shift over background was calculated by dividing the MFI obtained in the presence of the Examples (5 μM) by the MFI obtained in the absence of Examples, i.e., in the presence of vehicle. The shift in fluorescence intensity (APC) occurred due to detection of covalently bound complement components C3b/iC3b to the surface of the bacteria.

SMILES	IgG Recruitment (40 μM, Average fold change) [1] [fold change]	C3b deposition (5 μM, Average fold change) [2] [fold change]	C3b deposition (Average fold change) ([2]; 20 μM PmxB) [fold change]
CCCCCCCC[C@H](NC(=O)CCCCCNC(=O)CCCCCNC(=O)c1cccc(-c2ccc(OCC(=O)NCCNC(=O)CCCOC3O[C@@H](C)C(O)C(O)[C@@H]3O)cc2)c1)C(=O)N[C@@H](CCN)C(=O)N[C@H](C(=O)N[C@@H](CCN)C(=O)N[C@H]1CCNC(=O)[C@H]([C@@H](C)O)NC(=O)[C@H](CCN)NC(=O)[C@H](CCN)NC(=O)[C@H](CC(C)C)NC(=O)[C@@H](Cc2ccccc2)NC(=O)[C@H](CCN)NC1=O)[C@@H](C)O (some centres unmarked) [Example 1] ({X3-Ahx-Ahx}-[Gly(octyl)][Dab]T[Dab][Dab][Dab][dF]L[Dab][Dab]T; lactam 5-C)	77.7	109.8	
CCCCCCCC[C@H](NC(=O)CCCCCNC(=O)CCCCCNC(=O)c1cc(OCC(=O)NCCNC(=O)CCCOC2O[C@@H](C)C(O)C(O)[C@@H]2O)cc(-c2cc(OCC(=O)NCCNC(=O)CCCOC3O[C@@H](C)C(O)C(O)[C@@H]3O)cc(OCC(=O)NCCNC(=O)CCCOC3O[C@@H](C)C(O)C(O)[C@@H]3O)c2)c1)C(=O)N[C@@H](CCN)C(=O)N[C@H](C(=O)N[C@@H](CCN)C(=O)N[C@H]1CCNC(=O)[C@H]([C@@H](C)O)NC(=O)[C@H](CCN)NC(=O)[C@H](CCN)NC(=O)[C@H](CC(C)C)NC(=O)[C@@H](Cc2ccccc2)NC(=O)[C@H](CCN)NC1=O)[C@@H](C)O (some centres unmarked) [Example 2] ({X1-Ahx-Ahx}-[Gly(octyl)][Dab]T[Dab][Dab][Dab][dF]L[Dab][Dab]T; lactam 5-C)	3.4	148.1	
CC[C@H](C)CCCCC(=O)N[C@@H](CCN)C(=O)N[C@H](C(=O)N[C@@H](CCN)C(=O)N[C@H]1CCNC(=O)[C@H]([C@@H](C)O)NC(=O)[C@H](CCN)NC(=O)[C@H](CCN)NC(=O)[C@H](CC(C)C)NC(=O)[C@@H](Cc2ccccc2)NC(=O)[C@H](CCN)NC1=O)[C@@H](C)O [Polymyxin B, reference compound] (X2-[Dab]T[Dab][Dab][Dab][dF]L[Dab][Dab]T; lactam 4-C)	1.58		24.535
CCCCCCCCC(=O)N[C@@H](CCNC(=O)CCCCCNC(=O)CCCCCNC(=O)c1cccc(-c2ccc(OCC(=O)NCCNC(=O)CCCOC3O[C@@H](C)C(O)C(O)[C@@H]3O)cc2)c1)C(=O)N[C@H](C(=O)N[C@@H](CCN)C(=O)N[C@H]1CCNC(=O)[C@H]([C@@H](C)O)NC(=O)[C@H](CCN)NC(=O)[C@H](CCN)NC(=O)[C@H](CC(C)C)NC(=O)[C@@H](Cc2ccccc2)NC(=O)[C@H](CCN)NC1=O)[C@@H](C)O (stereo partly drawn) [Example 5] (Nonanoyl-[Dab]([Ahx-Ahx-X3])T[Dab][Dab][Dab][dF]L[Dab][Dab]T; lactam 4-C)	8.45	20.5	

— US11406683B2, “Compounds and therapeutics uses thereof” (Centauri Therapeutics Limited (GB/GB), priority 2017, dated 2022)
